Experimental findings from ChEMBL document CHEMBL4130567, “Discovery of Thiophene[3,2-d]pyrimidine Derivatives as Potent HIV-1 NNRTIs Targeting the Tolerant Region I of NNIBP” (ACS Med Chem Lett, 2017) are described below.

The test system of data set [1] is Human immunodeficiency virus 1. Briefly: Antiviral activity against wild type HIV1 3B infected in human MT4 cells assessed as inhibition of virus-induced cytopathic effect after 5 days by MTT assay. Format: functional, organism-based. The note with it: Human immunodeficiency virus 1, 3B, MT4, 120 h.
Data set [2] has as its system Human immunodeficiency virus 2. The data set is described as follows: Antiviral activity against HIV2 ROD infected in human MT4 cells assessed as inhibition of virus-induced cytopathic effect after 5 days by MTT assay. Particulars: Human immunodeficiency virus 2, ISOLATE ROD, MT4, 120 h. Format: functional, organism-based. (In general: Cytopathic effects are the visible damage that an infection or toxin causes in cultured cells.)

Data set [3] is described as follows: Cytotoxicity against human MT4 cells assessed as reduction in cell viability after 5 days by MTT assay. Format: cell-based. A general note: Tetrazolium dyes change colour on reduction, which living cells bring about.
Data set [4] in a line: Selectivity index, ratio of CC50 for human MT4 cells to EC50 for wild type HIV1 3B infected in human MT4 cells. Format: toxicity, cell-based. Particulars: MT4 cells infected with wild type HIV1 3B, read-out: Ratio CC50/EC50.
Data set [5] relates to Human immunodeficiency virus 1. Briefly: Antiviral activity against HIV1 3B harboring reverse transcriptase L100I mutant infected in human MT4 cells assessed as inhibition of virus-induced cytopathic effect after 5 days by MTT assay. The note with it: Human immunodeficiency virus 1, 3B, MT4, 120 h. Format: functional, organism-based.
Data set [6] deals with Human immunodeficiency virus 1. The data set is described as follows: Antiviral activity against HIV1 3B harboring reverse transcriptase K103N mutant infected in human MT4 cells assessed as inhibition of virus-induced cytopathic effect after 5 days by MTT assay. The note with it: Human immunodeficiency virus 1, 3B, MT4, 120 h. The data set is classed as functional, organism-based.

For data set [7], the system named is Human immunodeficiency virus 1. The data set is described as follows: Antiviral activity against HIV1 3B harboring reverse transcriptase Y181C mutant infected in human MT4 cells assessed as inhibition of virus-induced cytopathic effect after 5 days by MTT assay. The data set is classed as functional, organism-based. Particulars: Human immunodeficiency virus 1, 3B, MT4, 120 h.

Data set [8] concerns Human immunodeficiency virus 1. The data set is described as follows: Antiviral activity against HIV1 3B harboring reverse transcriptase Y188L mutant infected in human MT4 cells assessed as inhibition of virus-induced cytopathic effect after 5 days by MTT assay. Format: functional, organism-based. Particulars: Human immunodeficiency virus 1, 3B, MT4, 120 h.
The test system of data set [9] is Human immunodeficiency virus 1. Briefly: Antiviral activity against HIV1 3B harboring reverse transcriptase E138K mutant infected in human MT4 cells assessed as inhibition of virus-induced cytopathic effect after 5 days by MTT assay. Format: functional, organism-based. Particulars: Human immunodeficiency virus 1, 3B, MT4, 120 h.
Data set [10] has as its system Human immunodeficiency virus 1. The data set is described as follows: Antiviral activity against HIV1 3B harboring reverse transcriptase F227L/V106A double mutant infected in human MT4 cells assessed as inhibition of virus-induced cytopathic effect after 5 days by MTT assay. The data set is classed as functional, organism-based. The note with it: Human immunodeficiency virus 1, 3B, MT4, 120 h.

Data set [11] deals with Human immunodeficiency virus 1. Briefly: Antiviral activity against HIV1 3B harboring reverse transcriptase RES056 double mutant infected in human MT4 cells assessed as inhibition of virus-induced cytopathic effect after 5 days by MTT assay. Particulars: Human immunodeficiency virus 1, 3B, MT4, 120 h. The data set is classed as functional, organism-based.
The target in data set [12] is Human immunodeficiency virus type 1 reverse transcriptase (Human immunodeficiency virus 1, UniProt Q72547). The data set is described as follows: Inhibition of recombinant wild type HIV1 reverse transcriptase using DIG-labeled dUTP/biotin-labeled dUTP and dTTP as template and viral nucleotides assessed as decrease in biotin-dUTP incorporation after 1 hr by ELISA. (In an ELISA, binding on a coated surface is turned into a signal by an enzyme label.)

As usually defined, the EC50 is the concentration needed to bring the measured effect to its halfway point. What is called CC50 is the concentration that lowers cell viability or growth by half. By IC50 is commonly meant the concentration at which inhibition is half-maximal. For `CC(=O)Nc1ccc(S(=O)(=O)NC2CCC(Nc3nc(Oc4c(C)cc(C#N)cc4C)c4sccc4n3)CC2)cc1` (stereo not given), the EC50 was 10 nM in data set [1]; more than 3730 nM in [2]; 562 nM in data set [5]; 32 nM in data set [6]; 513 nM in data set [7]; 903 nM in [8]. In addition, the EC50 is 35 nM in [9], 1210 nM in [10] and more than 3730 nM in data set [11]. Moreover, in data set [3], the CC50 at 120 h was determined as 3730 nM. For the same compound, the selectivity ratio in data set [4] came out at 340. In addition, the IC50 in data set [12] turned out to be 1040 nM.
On to `Cc1cc(C#N)cc(C)c1Oc1nc(NC2CCC(NC(=O)c3ccc(C#N)cc3)CC2)nc2ccsc12` (stereo not given), for which the half-maximal effective concentration (EC50) in data set [1] was 138 nM; in data set [2], more than 2620 nM; in data set [5], more than 2620 nM; in data set [6], not below 1440 nM; in data set [7] it was more than 2620 nM; in data set [8] it was more than 2620 nM. Further, the EC50 in data set [9] was 736 nM; in data set [10], more than 2620 nM; in data set [11] it was more than 2620 nM. The CC50 at 120 h in data set [3] was found to be 2620 nM. For the same compound, the selectivity ratio in [4] amounted to 19.
With `Cc1cc(C#N)cc(C)c1Oc1nc(NC2CCC(NS(=O)(=O)c3ccc(Br)cc3)CC2)nc2ccsc12` (stereo not given), the concentration giving a half-maximal response (EC50) in data set [1] was 25 nM; in data set [2], more than 5860 nM; in data set [5], 841 nM; in data set [6], 131 nM; in [7], 852 nM; in data set [8] it was 2250 nM. Besides, the concentration for a half-maximal effect (EC50) in data set [9] was 126 nM; in data set [10] it was not below 6140 nM; in data set [11], 5870 nM. Further, in [3], the CC50 at 120 h was found to be 5860 nM. The selectivity ratio in data set [4] amounted to 231.
Turning to `Cc1cc(C#N)cc(C)c1Oc1nc(NC2CCC(NC(=O)c3ccc(Br)cc3)CC2)nc2ccsc12` (stereo not given), the half-maximal effective concentration (EC50) is 30 nM in data set [1]; more than 2850 nM in [2]; more than 2850 nM in [5]; 519 nM in data set [6]; more than 2850 nM in data set [7]; more than 2850 nM in [8]. Further, the concentration giving a half-maximal response (EC50) was 370 nM in data set [9], more than 2850 nM in data set [10] and more than 2850 nM in [11]. Moreover, the 50% cytotoxic concentration (CC50) at 120 h in [3] was 2850 nM. The selectivity ratio in data set [4] was determined as 93.
As to `Cc1cc(C#N)cc(C)c1Oc1nc(NC2CCC(NS(=O)(=O)c3cccc(C(F)(F)F)c3)CC2)nc2ccsc12` (stereo not given), the EC50 in [1] was 86 nM; in data set [2], more than 6680 nM; in data set [5] it was not below 4090 nM; in data set [6], 569 nM; in data set [7] it was not below 4340 nM; in data set [8], more than 6690 nM. In addition, the figures for the concentration for a half-maximal effect (EC50) in data set [9], in data set [10] and in data set [11] were 642 nM, more than 6690 nM and more than 6690 nM, respectively. Moreover, the cytotoxic concentration (CC50) at 120 h in data set [3] is 6680 nM. Also, in data set [4], the selectivity ratio came out at 78.
In the case of `Cc1cc(C#N)cc(C)c1Oc1nc(NC2CCC(NS(=O)(=O)c3ccc(F)cc3)CC2)nc2ccsc12` (stereo not given), the EC50 in data set [1] is 9.2 nM; in [2], more than 3530 nM; in [5] it was 410 nM; in data set [6], 103 nM; in data set [7], 472 nM; in data set [8], more than 3520 nM. Moreover, the EC50 is 76 nM in data set [9], more than 3520 nM in data set [10] and more than 3520 nM in data set [11]. Further, in [3], the CC50 at 120 h turned out to be 3530 nM. Moreover, the selectivity ratio in data set [4] was 383.
As to `Cc1cc(C#N)cc(C)c1Oc1nc(NC2CCC(NC(=O)c3ccccc3)CC2)nc2ccsc12` (stereo not given), the EC50 in data set [1] is 13 nM; in data set [2] it was more than 3930 nM; in data set [5], more than 3920 nM; in [6] it was 273 nM; in [7], not below 1510 nM; in data set [8] it was more than 3920 nM. The figures for the concentration giving a half-maximal response (EC50) in [9], in [10] and in data set [11] were 183 nM, more than 3920 nM and more than 3920 nM, respectively. In data set [3], the half-maximal cytotoxic concentration (CC50) at 120 h is 3930 nM. In data set [4], the selectivity ratio worked out at 294.
Consider `Cc1cc(C#N)cc(C)c1Oc1nc(NC2CCC(NC(=O)c3cccc(C(F)(F)F)c3)CC2)nc2ccsc12` (stereo not given), for which the concentration for a half-maximal effect (EC50) in [1] is 196 nM; in data set [2], more than 3240 nM; in [5], more than 3240 nM; in [6], more than 3240 nM; in [7], more than 3240 nM; in data set [8] it was more than 3240 nM. Besides, the 50% effective concentration (EC50) was not below 1330 nM in [9], more than 3240 nM in data set [10] and more than 3240 nM in data set [11]. Also, in data set [3], the CC50 at 120 h was found to be 3240 nM. For the same compound, the selectivity ratio in [4] was determined as 17.
Turning to `Cc1cc(C#N)cc(C)c1Oc1nc(NC2CCC(NS(=O)(=O)c3ccc(C#N)cc3)CC2)nc2ccsc12` (stereo not given), the EC50 in data set [1] is 7.1 nM; in data set [2] it was more than 9290 nM; in [5], 424 nM; in [6], 70 nM; in data set [7] it was 428 nM; in data set [8], 675 nM. The EC50 in data set [9] is 45 nM; in [10], 3580 nM; in data set [11] it was more than 9280 nM. Also, in data set [3], the cytotoxic concentration (CC50) at 120 h is 9290 nM. In addition, in [4], the selectivity ratio is 1310. In data set [12], the half-inhibitory concentration (IC50) is 1140 nM.
For `Cc1cc(C#N)cc(C)c1Oc1nc(NC2CCC(NC(=O)c3ccc(F)cc3)CC2)nc2ccsc12` (stereo not given), the EC50 in [1] was 26 nM; in data set [2], more than 3180 nM; in data set [5], more than 3180 nM; in data set [6] it was 478 nM; in data set [7] it was more than 3180 nM; in [8] it was more than 3180 nM. Further, the figures for the concentration for a half-maximal effect (EC50) in [9], in data set [10] and in [11] were 230 nM, more than 3180 nM and more than 3180 nM, respectively. Moreover, in data set [3], the CC50 at 120 h worked out at 3180 nM. Besides, the selectivity ratio in [4] was found to be 121.
As to `Cc1cc(C#N)cc(C)c1Oc1nc(Nc2ccc(C#N)cc2)nc(N)c1Br` [ETRAVIRINE], the half-maximal effective concentration (EC50) worked out at 2.8 nM in data set [1]; 9.7 nM in data set [5]; 3.4 nM in data set [6]; 19 nM in [7]; 20 nM in data set [8]; 23 nM in data set [10]. For the same compound, the EC50 in data set [11] was determined as 26 nM. In data set [3], the CC50 at 120 h stood at 2180 nM.
As for `Cc1cn([C@H]2C[C@H](N=[N+]=[N-])[C@@H](CO)O2)c(=O)[nH]c1=O` [ZIDOVUDINE], the half-maximal effective concentration (EC50) in data set [2] stood at 8 nM; in data set [5], 5.4 nM; in data set [6], 7.8 nM; in [7] it was 6.3 nM; in [8] it was 8 nM; in data set [9] it was 17 nM. Further, the EC50 was 5.3 nM in [10] and 11 nM in [11]. Besides, the CC50 at 120 h in data set [3] is more than 7480 nM. The selectivity ratio in data set [4] was more than 664.
